Structures can show the parent of a compound that is named as a salt.
How the values were obtained:
[1] = system: systemic blood pressure; assay: Reduction of systemic blood pressure (Experiment 2(a)); format: in vivo, beagle (anesthetized); conditions: intravenous; for inhibition in vivo at 0.025 mg/kg: Canis lupus familiaris, Table 2, read-out: Average percent reduction in blood pressure; for Average low pressure retention time: Table 3
Procedure: A beagle was anesthetized by intravenous injection of sodium pentobarbital and under artificial respiration an incision was made in the chest.
1. Systemic blood pressure (SBP): The SBP was measured by a pressure transducer that was connected to a catheter inserted into the right femoral artery.

[2] = system: heart rate; assay: Change in heart rate (Experiment 2(b)); format: in vivo, beagle (anesthetized); conditions: for Percent change in heart rate: Table 4, Experiment 2; for effect on heart rate (time course): in words
Procedure: A beagle was anesthetized by intravenous injection of sodium pentobarbital and under artificial respiration an incision was made in the chest. The various actions of Compounds 1, 2, 3, 5 and 7 of the present invention were checked by the following procedures:
2. Heart rate (HR): The HR was measured by a cardiotachometer using the pulse wave of blood pressure as trigger pulse.
As for the compounds of the present invention, a temporary increase was followed by a gradual decrease which started almost at the same time when a second phase reduction in blood pressure occurred (see FIG. 1).

[3] = Acute toxicity, oral administration to rats for fourteen consecutive days; format: in vivo, male SD strain rats; conditions: 400 mg/Kg, as hydrochloride, male SD rats
Procedure: The acute toxicity of Compounds Preparation Nos. 1 to 15 was examined by the oral administration of them to male SD strain rats (five rats per group) for fourteen consecutive days. All compounds had low toxicity and none supressed weight gain. No rat died upon administration of Compound 1 or 2 (both as hydrochloride) in a dose of 400 mg/Kg.

[4] = system: systemic blood pressure; assay: Neurogenic hypertension by artery obstruction/stricture (Experiment 3); format: in vivo, beagle (hypertensive); conditions: intravenous, 25 μg/Kg; FIG. 2, FIG. 3
Procedure: Hypertension was induced in a beagle by exciting the sympathetic nerve due to an obstruction of the bilateral vertebral artery and right common carotid artery, as well as a stricture of the left common carotid artery. The beagle was treated intravenously with 25 μg/Kg of Compounds 1 and 2.

[5] = system: blood pressure; assay: Blood pressure in unanesthetized SHR rats (Experiment 4); format: in vivo; conditions: oral, 10 mg/Kg; for blood pressure after dosing: 180±5.0 mmHg just before administration
Procedure: Unanesthetized SHR rats (five rats per group) were administered orally 10 mg/Kg of Compound 1.

Row | Structure (SMILES) | inhibition in vivo at 0.025 mg/kg ([1]; 25 μg/kg) | Average low pressure retention time ([1]; 25 μg/kg) | Percent change in heart rate [2] | change in systemic blood pressure (time course, FIG. 1) ([1]; 25 μg/kg, in words) | other results
1 | NNc1nncc2ccccc12 [A, hydralazine hydrochloride, reference compound] |  |  |  |  | significant reduction in blood pressure ([1]; 25 μg/Kg, in words): did not exhibit significant reduction in blood pressure
2 | COc1ccccc1N1CCN(CCCCCO)CC1 [B, reference compound] | 16.1% | 15.0 min | 9.9% |  | 
3 | COc1ccccc1N1CCN(CCCCCCO)CC1 [C, reference compound] | 12.6% | 14.4 min | 8.1% |  | 
4 | CCOC(=O)CCCCCCN1CCN(c2ccccc2OC)CC1 [Compound 1, 1-(6-ethoxycarbonylhexyl)-4-(o-methoxyphenyl)piperazine] | 25.5% | 47.3 min | -9.6% | the initial temporary reduction was followed by a reduction in the second phase, and the systemic blood pressure was maintained low thereafter | deaths upon administration [3]: No rat died; period of maintained low blood pressure compared with the others ([1]; 25 μg/kg, in words): maintained the blood pressure at low level for a longer period than did the others; extension of low pressure retention time, hypertensive vs normal beagle [4]: more effective; reduction of heart rate, hypertensive vs normal beagle [4]: more effective; reduction of systemic blood pressure, hypertensive vs normal beagle [4]: more effective; blood pressure after dosing ([5]; 1 h): 127±11.6 mmHg; blood pressure after dosing ([5]; 2 h): 137±7.6 mmHg; duration of reduced blood pressure ([5]; in words): maintained at the reduced level for a satisfactorily long time
5 | CCOC(=O)CCCCCN1CCN(c2ccccc2OC)CC1 [Compound 2, 1-(5-ethoxycarbonylpentyl)-4-(o-methoxyphenyl)piperazine] | 22.4% | 20.0 min | -1.6% | the initial temporary reduction was followed by a reduction in the second phase, and the systemic blood pressure was maintained low thereafter | deaths upon administration [3]: No rat died; extension of low pressure retention time, hypertensive vs normal beagle [4]: more effective; reduction of heart rate, hypertensive vs normal beagle [4]: more effective; reduction of systemic blood pressure, hypertensive vs normal beagle [4]: more effective
6 | CCOC(=O)CCCCCCN1CCN(c2ccccc2OC(C)C)CC1 [Compound 3, 1-(6-ethoxycarbonylhexyl)-4-(o-isopropyloxyphenyl)piperazine] | 22.1% | 22.4 min | -4.0% |  | 
7 | COC(=O)CCCCCCN1CCN(c2ccccc2OC)CC1 [Compound 5, 1-(6-methoxycarbonylhexyl)-4-(o-methoxyphenyl)piperazine] | 23.1% | 18.6 min | -2.2% |  | 
8 | CCOC(=O)CCCCN1CCN(c2ccccc2OC)CC1 [Compound 7, 1-(4-ethoxycarbonylbutyl)-4-(o-methoxyphenyl)piperazine] | 19.1% | 13.4 min | 13.2% | the initial temporary reduction was followed by a reduction in the second phase, and the systemic blood pressure was maintained low thereafter | 
9 | COc1ccccc1N1CCN(CCCCCCCO)CC1 [D, reference compound] | 14.3% | 22.5 min | -9.1% |  | 
10 | CCOC(=O)CCN1CCN(c2ccccc2OC)CC1 [E, reference compound] | 15.1% | 6.8 min | 16.8% | only temporary | effect on heart rate (time course) [2]: first increased the heart rate and thereafter the increased heart rate gradually returned to the normal level
11 | CCOC(=O)CCCN1CCN(c2ccccc2OC)CC1 [F, reference compound] | 15.2% | 8.8 min | 11.2% | only temporary | effect on heart rate (time course) [2]: first increased the heart rate and thereafter the increased heart rate gradually returned to the normal level

From patent publication US4438115A, “Compositions and methods for treating diseases in circulatory organs” (Chugai Seiyaku Kabushiki Kaisha, priority 1980, dated 1984)
